biological target: T1, human V1a receptor (Homo sapiens, UniProt P37288); assay: human V1a receptor binding studies (SPA, 3H-Vasopressin, membranes of transfected HEK293 cells); details: displacement of 3H-Vasopressin, HEK293 cell membranes, 1 h at room temperature; Ki by Cheng-Prussoff equation; read-out: pKi (hV1a) (converted)
T1 construct: expressed in transfected cells; host or cells: HEK293 cells, transiently transfected; membrane preparation
Method: The human V1a receptor was cloned by RT-PCR from total human liver RNA. The coding sequence was subcloned in an expression vector after sequencing to confirm the identity of the amplified sequence. […] Cell membranes were prepared from HEK293 cells transiently transfected with the expression vector and grown in 20 liter fermenters with the following protocol.
50 g of cells are resuspended in 30 ml freshly prepared ice cold Lysis buffer (50 mM HEPES, 1 mM EDTA, 10 mM magnesium dichloride adjusted to pH=7.4+complete cocktail of protease inhibitor (Roche Diagnostics)). Homogenized with Polytron for 1 min and sonicated on ice for 2×2 minutes at 80% intensity (Vibracell sonicator). The preparation is centrifuged 20 min at 500 g at 4° C., the pellet is discarded and the supernatant centrifuged 1 hour at 43'000 g at 4° C. (19'000 rpm). The pellet is resuspended in 12.5 ml Lysis buffer+12.5 ml Sucrose 20% and homogenized using a Polytron for 1-2 min. The protein concentration is determined by the Bradford method and aliquots are stored at −80° C. until use. For binding studies 60 mg Yttrium silicate SPA beads (Amersham) are mixed with an aliquot of membrane in binding buffer (50 mM Tris, 120 mM sodium chloride, 5 mM potassium chloride, 2 mM Calcium dichloride, 10 mM magnesium dichloride) for 15 minutes with mixing. 50 μl of bead/membrane mixture is then added to each well of a 96 well plate, followed by 50 μl of 4 nM 3H-Vasopressin (American Radiolabeled Chemicals). For total binding measurement 100 μl of binding buffer are added to the respective wells, for non-specific binding 100 μl of 8.4 mM cold vasopressin and for compound testing 100 μl of a serial dilution of each compound in 2% dimethyl sulfoxide. The plate is incubated 1 h at room temperature, centrifuged […] at 1000 g and counted on a Packard Top-Count. Non-specific binding counts are subtracted from each well and data is normalized to the maximum specific binding set at 100%. To calculate an IC 50 the curve is fitted using a non-linear regression model (XLfit) and the Ki is calculated using the Cheng-Prussoff equation.

T1 sequence (P37288 whole entry): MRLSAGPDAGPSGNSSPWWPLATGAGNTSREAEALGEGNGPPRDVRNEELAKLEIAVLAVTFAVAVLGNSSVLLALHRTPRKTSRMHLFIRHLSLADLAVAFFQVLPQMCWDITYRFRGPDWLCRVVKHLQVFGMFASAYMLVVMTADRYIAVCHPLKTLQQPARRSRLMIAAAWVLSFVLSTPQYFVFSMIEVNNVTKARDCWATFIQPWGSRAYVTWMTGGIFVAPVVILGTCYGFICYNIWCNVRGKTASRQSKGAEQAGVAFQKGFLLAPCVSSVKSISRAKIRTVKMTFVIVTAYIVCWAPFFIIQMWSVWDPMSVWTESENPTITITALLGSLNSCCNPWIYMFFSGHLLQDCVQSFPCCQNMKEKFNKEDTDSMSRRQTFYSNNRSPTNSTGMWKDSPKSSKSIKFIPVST

Question: `CN1Cc2cc(Cl)ccc2-n2c(nnc2[C@H]2CC[C@H](Oc3ncccn3)CC2)C1` [Example 82, trans-8-Chloro-5-methyl-1-[4-(pyrimidin-2-yloxy)-cyclohexyl]-5,6-dihydro-4H-2,3,5,10b-tetraaza-benzo[e]azulene] was tested. Which Ki did it give?
Answer: The Ki was 5.5 nM.

Question: `CC(C)(C)OC(=O)N1Cc2cc(Cl)ccc2-n2c(nnc2[C@H]2CC[C@H](Oc3cnccn3)CC2)C1` [Example 83, trans-8-Chloro-1-[4-(pyrazin-2-yloxy)-cyclohexyl]-4H,6H-2,3,5,10b-tetraaza-benzo[e]azulene-5-carboxylic acid tert-butyl ester] was tested. Which Ki did it give?
Answer: Its Ki is 4.07 nM.

Question: For `CN1Cc2cc(Cl)ccc2-n2c(nnc2[C@H]2CC[C@H](Oc3cnccn3)CC2)C1` [Example 85, trans-8-Chloro-5-methyl-1-[4-(pyrazin-2-yloxy)-cyclohexyl]-5,6-dihydro-4H-2,3,5,10b-tetraaza-benzo[e]azulene], which Ki is on record?
Answer: The Ki was 7.59 nM.

Question: For `CC(C)(C)OC(=O)N1Cc2cc(Cl)ccc2-n2c(nnc2[C@H]2CC[C@H](Oc3ccncn3)CC2)C1` [Example 86, trans-8-Chloro-1-[4-(pyrimidin-4-yloxy)-cyclohexyl]-4H,6H-2,3,5,10b-tetraaza-benzo[e]azulene-5-carboxylic acid tert-butyl ester], which Ki is on record?
Answer: Its Ki is 3.47 nM.

Question: How did the Ki turn out when `CN1Cc2cc(Cl)ccc2-n2c(nnc2[C@H]2CC[C@H](Oc3ccncn3)CC2)C1` [Example 89, trans-8-Chloro-5-methyl-1-[4-(pyrimidin-4-yloxy)-cyclohexyl]-5,6-dihydro-4H-2,3,5,10b-tetraaza-benzo[e]azulene] was run?
Answer: The Ki was 12.3 nM.

Question: `CC(C)(C)OC(=O)N1Cc2cc(Cl)ccc2-n2c(nnc2[C@H]2CC[C@H](Oc3cccnn3)CC2)C1` [Example 92, trans-8-Chloro-1-[4-(pyridazin-3-yloxy)-cyclohexyl]-4H,6H-2,3,5,10b-tetraaza-benzo[e]azulene-5-carboxylic acid tert-butyl ester] was tested. Which Ki did it give?
Answer: The Ki was 2.4 nM.

Question: How did the Ki turn out when `CC(C)(C)OC(=O)N1Cc2cc(Cl)ccc2-n2c(nnc2[C@H]2CC[C@@H](Oc3cccnn3)CC2)C1` [Example 93, cis-8-Chloro-1-[4-(pyridazin-3-yloxy)-cyclohexyl]-4H,6H-2,3,5,10b-tetraaza-benzo[e]azulene-5-carboxylic acid tert-butyl ester] was run?
Answer: The Ki was 7.94 nM.

Question: For `CN1Cc2cc(Cl)ccc2-n2c(nnc2[C@H]2CC[C@H](Oc3cccnn3)CC2)C1` [Example 95, trans-8-Chloro-5-methyl-1-[4-(pyridazin-3-yloxy)-cyclohexyl]-5,6-dihydro-4H-2,3,5,10b-tetraaza-benzo[e]azulene], which Ki is on record?
Answer: The Ki was 9.12 nM.

Question: Which Ki does the source give for `Fc1cccnc1O[C@H]1CC[C@H](c2nnc3n2-c2ccc(Cl)cc2CNC3)CC1` [Example 98, trans-8-Chloro-1-[4-(3-fluoro-pyridin-2-yloxy)-cyclohexyl]-5,6-dihydro-4H-2,3,5,10b-tetraaza-benzo[e]azulene] here?
Answer: The Ki was 3.02 nM.

Question: Which Ki does the source give for `Fc1ccc(O[C@H]2CC[C@H](c3nnc4n3-c3ccc(Cl)cc3CNC4)CC2)nc1` [Example 101, trans-8-Chloro-1-[4-(5-fluoro-pyridin-2-yloxy)-cyclohexyl]-5,6-dihydro-4H-2,3,5,10b-tetraaza-benzo[e]azulene] here?
Answer: The Ki was 9.12 nM.

Question: With `Cc1cccc(O[C@H]2CC[C@H](c3nnc4n3-c3ccc(Cl)cc3CNC4)CC2)n1` [Example 105, trans-8-Chloro-1-[4-(6-methyl-pyridin-2-yloxy)-cyclohexyl]-5,6-dihydro-4H-2,3,5,10b-tetraaza-benzo[e]azulene] as the compound, how does the Ki read?
Answer: The Ki was 5.75 nM.

Question: With `Clc1ccc2c(c1)CNCc1nnc([C@H]3CC[C@@H](Oc4ccccn4)CC3)n1-2` [Example 110, cis-8-Chloro-1-[4-(pyridin-2-yloxy)-cyclohexyl]-5,6-dihydro-4H-2,3,5,10b-tetraaza-benzo[e]azulene] as the compound, how does the Ki read?
Answer: Its Ki is 51.3 nM.

Question: For `CN1Cc2cc(Cl)ccc2-n2c(nnc2[C@H]2CC[C@@H](Oc3ccccn3)CC2)C1` [Example 111, cis-8-Chloro-5-methyl-1-[4-(pyridin-2-yloxy)-cyclohexyl]-5,6-dihydro-4H-2,3,5,10b-tetraaza-benzo[e]azulene], which Ki is on record?
Answer: Its Ki is 3.31 nM.

— patent US8461152B2, “Arylcyclohexylethers of dihydrotetraazabenzoazulenes” (Hoffmann-La Roche Inc., priority 2008, dated 2013)
